Test results taken from ChEMBL document CHEMBL1132113, “Inhibitors of efflux pumps in Pseudomonas aeruginosa potentiate the activity of the fluoroquinolone antibacterial levofloxacin” (1999).
≈ marks a conversion by molar mass, not a printed value. Square brackets hold non-standard residues; d marks the D form. Peptide text beside a SMILES is read from it. * marks the point of attachment. Orn = NCCC[C@H](N)C(=O)O; βNA = c1ccc2cc(N*)ccc2c1

Assays:
[1] = tested on: Pseudomonas aeruginosa; assay: Minimum Inhibitory concentration required to inhibit the growth of Pseudomonas aeruginosa (strain PAM 1032); format: functional
[2] = Volume of synergy by MacSynergy II 3-D analysis
[3] = tested on: Pseudomonas aeruginosa; assay: Minimum Inhibitory concentration required to reduce the MIC of levofloxacin by 8-fold against PAM 1032; format: functional
[4] = tested on: Pseudomonas aeruginosa; assay: (§1) Volume of synergy by MacSynergy II 3-D analysis.; format: functional
[5] = tested on: Pseudomonas aeruginosa; assay: Minimum Inhibitory concentration required to inhibit the growth of Pseudomonas aeruginosa (strain PAM 1032).; format: functional
[6] = as §1
[7] = tested on: Pseudomonas aeruginosa; assay: Minimum inhibitory concentration of Levofloxacin in presence at a concentration of 5 ug/mL against PAM 1032; format: functional
[8] = tested on: Pseudomonas aeruginosa; assay: Minimum inhibitory concentration of Levofloxacin in presence at a concentration of 2.50 ug/mL against PAM 1033; format: functional
[9] = tested on: Pseudomonas aeruginosa; assay: Minimum inhibitory concentration of Levofloxacin in presence at a concentration of 10 ug/mL against PAM 1034; format: functional
[10] = tested on: Pseudomonas aeruginosa; assay: Minimum inhibitory concentration of Levofloxacin in presence at a concentration of 40 ug/mL against PAM 1033; format: functional
[11] = tested on: Pseudomonas aeruginosa; assay: Minimum inhibitory concentration of Levofloxacin in presence at a concentration of 2.5 ug/mL against PAM 1034; format: functional
[12] = tested on: Pseudomonas aeruginosa; assay: Minimum inhibitory concentration of Levofloxacin in presence at a concentration of 0 ug/mL against PAM 1034; format: functional
[13] = tested on: Pseudomonas aeruginosa; assay: Minimum inhibitory concentration of Levofloxacin in presence at a concentration of 10 ug/mL against PAM 1033; format: functional
[14] = tested on: Pseudomonas aeruginosa; assay: Minimum inhibitory concentration of Levofloxacin in presence at a concentration of 2.5 ug/mL against PAM 1032; format: functional
[15] = tested on: Pseudomonas aeruginosa; assay: Minimum Inhibitory concentration required to reduce the MIC of levofloxacin by 8-fold against PAM 1034; format: functional
[16] = tested on: Pseudomonas aeruginosa; assay: Minimum inhibitory concentration of Levofloxacin in presence at a concentration of 5 ug/mL against PAM 1034; format: functional
[17] = tested on: Pseudomonas aeruginosa; assay: Minimum inhibitory concentration of Levofloxacin in presence at a concentration of 40 ug/mL against PAM 1034; format: functional
[18] = tested on: Pseudomonas aeruginosa; assay: Minimum inhibitory concentration of Levofloxacin in presence at a concentration of 1.25 ug/mL against PAM 1033; format: functional
[19] = tested on: Pseudomonas aeruginosa; assay: Minimum inhibitory concentration of Levofloxacin in presence at a concentration of 1.25 ug/mL against PAM 1032; format: functional
[20] = tested on: Pseudomonas aeruginosa; assay: Minimum inhibitory concentration of Levofloxacin in presence at a concentration of 40 ug/mL against PAM 1032; format: functional
[21] = tested on: Pseudomonas aeruginosa; assay: Minimum Inhibitory concentration required to reduce the MIC of levofloxacin by 8-fold against PAM 1033; format: functional
[22] = tested on: Pseudomonas aeruginosa; assay: Minimum inhibitory concentration of Levofloxacin in presence at a concentration of 0 ug/mL against PAM 1033; format: functional
[23] = tested on: Pseudomonas aeruginosa; assay: Minimum inhibitory concentration of Levofloxacin in presence at a concentration of 20 ug/mL against PAM 1033; format: functional
[24] = tested on: Pseudomonas aeruginosa; assay: Minimum inhibitory concentration of Levofloxacin in presence at a concentration of 50 ug/mL against PAM 1033; format: functional
[25] = tested on: Pseudomonas aeruginosa; assay: Minimum inhibitory concentration of Levofloxacin in presence at a concentration of 1.25 ug/mL against PAM 1034; format: functional
[26] = tested on: Pseudomonas aeruginosa; assay: Minimum inhibitory concentration of Levofloxacin in presence at a concentration of 20 ug/mL against PAM 1034; format: functional
[27] = tested on: Pseudomonas aeruginosa; assay: Minimum inhibitory concentration of Levofloxacin in presence at a concentration of 0 ug/mL against PAM 1032; format: functional
[28] = tested on: Pseudomonas aeruginosa; assay: Minimum inhibitory concentration of Levofloxacin in presence at a concentration of 20 ug/mL against PAM 1032; format: functional
[29] = tested on: Pseudomonas aeruginosa; assay: Minimum inhibitory concentration of Levofloxacin in presence at a concentration of 10 ug/mL against PAM 1032; format: functional
[30] = tested on: Pseudomonas aeruginosa; assay: Minimum inhibitory concentration of Levofloxacin in presence at a concentration of 2.5 ug/mL against PAM 1034.; format: functional
[31] = tested on: Pseudomonas aeruginosa; assay: Minimum inhibitory concentration of Levofloxacin in presence at a concentration of 20 ug/mL against PAM 1034.; format: functional
[32] = tested on: Pseudomonas aeruginosa; assay: Minimum inhibitory concentration of Levofloxacin in presence at a concentration of 20 ug/mL against PAM 1033.; format: functional
[33] = tested on: Pseudomonas aeruginosa; assay: Minimum Inhibitory concentration required to reduce the MIC of levofloxacin by 8-fold against PAM 1033.; format: functional
[34] = tested on: Pseudomonas aeruginosa; assay: Minimum inhibitory concentration of Levofloxacin in presence at a concentration of 10 ug/mL against PAM 1034.; format: functional
[35] = tested on: Pseudomonas aeruginosa; assay: Minimum inhibitory concentration of Levofloxacin in presence at a concentration of 40 ug/mL against PAM 1033.; format: functional
[36] = tested on: Pseudomonas aeruginosa; assay: Minimum inhibitory concentration of Levofloxacin in presence at a concentration of 0 ug/mL against PAM 1034.; format: functional
[37] = tested on: Pseudomonas aeruginosa; assay: Minimum inhibitory concentration of Levofloxacin in presence at a concentration of 5 ug/mL against PAM 1034.; format: functional
[38] = tested on: Pseudomonas aeruginosa; assay: Minimum inhibitory concentration of Levofloxacin in presence at a concentration of 2.50 ug/mL against PAM 1033.; format: functional
[39] = tested on: Pseudomonas aeruginosa; assay: Minimum inhibitory concentration of Levofloxacin in presence at a concentration of 1.25 ug/mL against PAM 1034.; format: functional
[40] = tested on: Pseudomonas aeruginosa; assay: Minimum inhibitory concentration of Levofloxacin in presence at a concentration of 50 ug/mL against PAM 1033.; format: functional
[41] = tested on: Pseudomonas aeruginosa; assay: Minimum Inhibitory concentration required to reduce the MIC of levofloxacin by 8-fold against PAM 1034.; format: functional
[42] = tested on: Pseudomonas aeruginosa; assay: Minimum inhibitory concentration of Levofloxacin in presence at a concentration of 10 ug/mL against PAM 1033.; format: functional
[43] = tested on: Pseudomonas aeruginosa; assay: Minimum inhibitory concentration of Levofloxacin in presence at a concentration of 40 ug/mL against PAM 1034.; format: functional

Structure (SMILES): NCCC[C@H](NC(=O)[C@@H](N)CCc1ccccc1)C(=O)Nc1ccc2c(c1)CCC2
- MIC [1]: 256 µg/mL (≈ 627 µM)
- VOLSYN [2]: 2220
- MPC8 [3]: 2.5 µg/mL

Structure (SMILES): NCCC[C@H](NC(=O)[C@@H](N)CCc1ccccc1)C(=O)Nc1ccc2ccccc2c1
- VOLSYN [4]: 2612
- MIC [5]: 128 µg/mL (≈ 306 µM)
- MPC8 [3]: 2.5 µg/mL

Structure (SMILES): NCCC[C@H](N)C(=O)Nc1ccc2ccccc2c1
- VOLSYN [4]: 183
- MIC [5]: > 512 µg/mL
- MPC8 [3]: >40 µg/mL

Structure (SMILES): N[C@@H](Cc1ccccc1)C(=O)N[C@@H](Cc1c[nH]cn1)C(=O)Nc1ccc2ccccc2c1 (H-Phe-His-βNA)
- VOLSYN [4]: 463
- MIC [5]: > 512 µg/mL
- MPC8 [3]: >40 µg/mL

Structure (SMILES): NCCC[C@H](NC(=O)[C@@H](N)Cc1ccccc1)C(=O)Nc1ccc2ccccc2c1
- VOLSYN [4]: 1760
- MIC [5]: 512 µg/mL (≈ 1270 µM)
- MPC8 [3]: 5 µg/mL

Structure (SMILES): NCCC[C@H](NC(=O)[C@@H](N)Cc1ccc(F)cc1)C(=O)Nc1ccc2ccccc2c1
- VOLSYN [4]: 2343
- MIC [5]: 512 µg/mL (≈ 1210 µM)
- MPC8 [3]: 5 µg/mL

Structure (SMILES): NCCC[C@H](NC(=O)[C@@H](N)CCc1ccccc1)C(=O)Nc1ccccc1
- MIC [1]: > 512 µg/mL
- VOLSYN [6]: 906
- MPC8 [3]: >40 µg/mL

Structure (SMILES): NCCC[C@H](NC(=O)[C@@H](N)CCc1ccccc1)C(=O)Nc1cnc2ccccc2c1
- MIC [7]: 0.125 µg/mL (≈ 0.298 µM)
- MIC [8]: 0.5 µg/mL (≈ 1.19 µM)
- MIC [9]: 0.125 µg/mL (≈ 0.298 µM)
- MIC [1]: > 512 µg/mL
- MIC [10]: 0.06 µg/mL (≈ 0.143 µM)
- MIC [11]: 1 µg/mL (≈ 2.38 µM)
- VOLSYN [2]: 2590
- MIC [12]: 4 µg/mL (≈ 9.53 µM)
- MIC [13]: 0.06 µg/mL (≈ 0.143 µM)
- MIC [14]: 0.5 µg/mL (≈ 1.19 µM)
- MPC8 [15]: 5 µg/mL
- MIC [16]: 0.25 µg/mL (≈ 0.596 µM)
- MIC [17]: 0.125 µg/mL (≈ 0.298 µM)
- MIC [18]: 2 µg/mL (≈ 4.77 µM)
- MIC [19]: 1 µg/mL (≈ 2.38 µM)
- MIC [20]: 0.06 µg/mL (≈ 0.143 µM)
- MPC8 [21]: 2.5 µg/mL
- MIC [22]: 4 µg/mL (≈ 9.53 µM)
- MIC [23]: 0.06 µg/mL (≈ 0.143 µM)
- MIC [24]: 0.125 µg/mL (≈ 0.298 µM)
- MIC [25]: 4 µg/mL (≈ 9.53 µM)
- MIC [26]: 0.125 µg/mL (≈ 0.298 µM)
- MPC8 [3]: 5 µg/mL
- MIC [27]: 2 µg/mL (≈ 4.77 µM)
- MIC [28]: 0.06 µg/mL (≈ 0.143 µM)
- MIC [29]: 0.06 µg/mL (≈ 0.143 µM)

Structure (SMILES): C[C@H](N)C(=O)N[C@@H](CCCN)C(=O)Nc1ccc2ccccc2c1 (H-Ala-[Orn]-βNA)
- VOLSYN [4]: 486
- MIC [5]: > 512 µg/mL
- MPC8 [3]: 40 µg/mL

Structure (SMILES): N=C(N)NCCC[C@H](NC(=O)[C@@H](N)Cc1ccccc1)C(=O)Nc1ccc2ccccc2c1 [PABETAN] (H-Phe-Arg-βNA)
- MIC [7]: 0.5 µg/mL (≈ 1.12 µM)
- MIC [30]: 4 µg/mL (≈ 8.96 µM)
- MIC [1]: > 512 µg/mL
- MIC [31]: 0.06 µg/mL (≈ 0.134 µM)
- MIC [32]: 0.125 µg/mL (≈ 0.28 µM)
- MIC [14]: 1 µg/mL (≈ 2.24 µM)
- MPC8 [33]: 5 µg/mL
- MIC [18]: 4 µg/mL (≈ 8.96 µM)
- MIC [34]: 0.25 µg/mL (≈ 0.56 µM)
- MIC [35]: 0.125 µg/mL (≈ 0.28 µM)
- MIC [19]: 2 µg/mL (≈ 4.48 µM)
- MIC [20]: 0.06 µg/mL (≈ 0.134 µM)
- MIC [36]: 4 µg/mL (≈ 8.96 µM)
- MIC [22]: 4 µg/mL (≈ 8.96 µM)
- MIC [37]: 1 µg/mL (≈ 2.24 µM)
- MIC [38]: 2 µg/mL (≈ 4.48 µM)
- MIC [39]: 4 µg/mL (≈ 8.96 µM)
- VOLSYN [4]: 1962
- MIC [40]: 0.5 µg/mL (≈ 1.12 µM)
- MPC8 [3]: 10 µg/mL
- MPC8 [41]: 10 µg/mL
- MIC [42]: 0.125 µg/mL (≈ 0.28 µM)
- MIC [27]: 2 µg/mL (≈ 4.48 µM)
- MIC [43]: 0.03 µg/mL (≈ 0.0672 µM)
- MIC [28]: 0.06 µg/mL (≈ 0.134 µM)
- MIC [29]: 0.125 µg/mL (≈ 0.28 µM)

Structure (SMILES): NCCCC[C@H](NC(=O)[C@@H](N)Cc1ccccc1)C(=O)Nc1ccc2ccccc2c1
- VOLSYN [4]: 1390
- MIC [5]: > 512 µg/mL
- MPC8 [3]: 10 µg/mL

Structure (SMILES): CN(C(=O)[C@@H](N)Cc1ccccc1)[C@@H](CCCN)C(=O)Nc1ccc2ccccc2c1
- VOLSYN [4]: 2825
- MIC [5]: 256 µg/mL (≈ 612 µM)
- MPC8 [3]: 5 µg/mL

Structure (SMILES): NCCC[C@H](NC(=O)[C@@H](N)CCc1ccccc1)C(=O)Nc1ccc2ncccc2c1
- MIC [1]: > 512 µg/mL
- VOLSYN [6]: 2060
- MPC8 [3]: 10 µg/mL
